Experimental data published in patent US20130252890A1, “6,7-DIHYDRO-5H-BENZO[7]ANNULENE DERIVATIVES, PROCESS FOR PREPARATION THEREOF, PHARMACEUTICAL PREPARATIONS COMPRISING THEM, AND THE USE THEREOF FOR PRODUCTION OF MEDICAMENTS” (BAYER INTELLECTUAL PROPERTY GMBH, priority 2010, published 2013).
pIC50: −log10 of the molar value.

biological target: T1, oestrogen receptor (ER) (Homo sapiens, UniProt P03372); experiment: Anti-oestrogenic action in MVLN cells (inhibition of estradiol-induced luciferase); assay type: cell-based; settings: inhibition of estradiol-induced luciferase signal, value of Ex. 44 is a mean value, read-out: Antioestrogenic action in vitro: MVLN transactivation antagonism IC50
T1 construct: These MVLN cells express, along with the functional oestrogen receptor (ER), a reporter construct; endogenous in cells; host or cells: MVLN cells (MCF7 derivative carrying a luciferase reporter construct)
T1 sequence (P03372 1-595): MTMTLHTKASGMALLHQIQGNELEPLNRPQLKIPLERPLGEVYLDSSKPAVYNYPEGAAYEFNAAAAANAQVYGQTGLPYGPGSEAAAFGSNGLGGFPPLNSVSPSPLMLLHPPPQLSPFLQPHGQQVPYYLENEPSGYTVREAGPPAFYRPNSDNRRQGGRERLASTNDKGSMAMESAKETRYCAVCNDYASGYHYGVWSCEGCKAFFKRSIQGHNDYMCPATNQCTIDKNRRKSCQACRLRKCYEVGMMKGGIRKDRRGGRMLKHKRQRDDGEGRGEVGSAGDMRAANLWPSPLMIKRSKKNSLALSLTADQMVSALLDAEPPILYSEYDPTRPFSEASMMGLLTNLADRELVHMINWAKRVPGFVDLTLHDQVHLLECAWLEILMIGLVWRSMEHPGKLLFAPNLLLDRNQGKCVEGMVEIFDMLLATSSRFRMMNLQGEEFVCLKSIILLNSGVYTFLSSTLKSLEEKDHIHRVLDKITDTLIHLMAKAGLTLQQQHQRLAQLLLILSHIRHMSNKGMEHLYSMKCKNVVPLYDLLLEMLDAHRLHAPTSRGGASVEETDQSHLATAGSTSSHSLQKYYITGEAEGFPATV
Description: The anti-oestrogenic action of the claimed pharmacological compounds was investigated in so-called MVLN cells in vitro. MVLN cells are derivatives of the hormone-responsive MCF7 breast cancer cells known by a person skilled in the art. These MVLN cells express, along with the functional oestrogen receptor (ER), a reporter construct, which under ER-activation expresses luciferase. Determination of the activity of the induced luciferase permits a direct conclusion on the oestrogen properties of substances. To investigate the anti-oestrogenic properties of the pharmacological compounds, they were investigated in the presence of oestrogen for their potential for inhibiting the luciferase signal induced by estradiol. The claimed pharmacological test substances were investigated in MVLN cells for their anti-oestrogenic potential, as described (see Table 2).

Row | Structure (SMILES) | pIC50
1 | CCN(CCCCCCC1=C(c2ccc(F)c(F)c2)CCCc2cc(O)ccc21)CCCS(=O)(=O)CCC(F)(F)F [Example 30, 8-(3,4-Difluorophenyl)-9-[6-(ethyl{3-[(3,3,3-trifluoropropyl)sulphonyl]propyl}amino)hexyl]-6,7-dihydro-5H-benzo[7]annulen-3-ol] | 7.06
2 | COCCCN(CCCCCCC1=C(c2ccc(F)c(F)c2)CCCc2cc(O)ccc21)CCCS(=O)(=O)CCCC(F)(F)C(F)(F)F [Example 32, 8-(3,4-Difluorophenyl)-9-{6-[(3-methoxypropyl){3-[(4,4,5,5,5-pentafluoropentyl)sulphonyl]propyl}amino]hexyl}-6,7-dihydro-5H-benzo[7]annulen-3-ol] | 7.48
3 | CN(CCCCCCC1=C(c2ccc(F)cc2)CCCc2c1ccc(O)c2F)CCCS(=O)(=O)CCC(F)(F)C(F)(F)F [Example 34, 4-Fluoro-8-(4-fluorophenyl)-9-[6-(methyl{3-[(3,3,4,4,4-pentafluorobutyl)sulphonyl]propyl}amino)hexyl]-6,7-dihydro-5H-benzo[7]annulen-3-ol] | 7.57
4 | CN(CCCCCCC1=C(c2ccc(F)cc2)CCCc2c1ccc(O)c2F)CCC[S+]([O-])CCC(F)(F)F (centres unmarked) [Example 36, 4-Fluoro-8-(4-fluorophenyl)-9-[6-(methyl{3-[(3,3,3-trifluoropropyl)sulphinyl]propyl}amino)hexyl]-6,7-dihydro-5H-benzo[7]annulen-3-ol] | 7.46
5 | CN(CCCCCCC1=C(c2ccc(F)cc2)CCCc2c1ccc(O)c2F)CCCS(=O)(=O)CCC(F)(F)F [Example 37, 4-Fluoro-8-(4-fluorophenyl)-9-[6-(methyl{3-[(3,3,3-trifluoropropyl)sulphonyl]propyl}amino)hexyl]-6,7-dihydro-5H-benzo[7]annulen-3-ol] | 7.28
6 | CN(CCCCCCC1=C(c2ccc(F)cc2)CCCc2c1ccc(O)c2F)CCCS(=O)(=O)CCCC(F)(F)F [Example 38, 4-Fluoro-8-(4-fluorophenyl)-9-[6-(methyl{3-[(4,4,4-trifluorobutyl)sulphonyl]propyl}amino)hexyl]-6,7-dihydro-5H-benzo[7]annulen-3-ol] | 7.57
7 | COCCN(CCCCCCC1=C(c2ccc(F)cc2)CCCc2c1ccc(O)c2F)CCCS(=O)(=O)CCCC(F)(F)C(F)(F)F [Example 40, 4-Fluoro-8-(4-fluorophenyl)-9-{6-[(2-methoxyethyl){3-[(4,4,5,5,5-pentafluoropentyl)sulphonyl]propyl}amino]hexyl}-6,7-dihydro-5H-benzo[7]annulen-3-ol] | 6.77
8 | COCCCN(CCCCCCC1=C(c2ccc(F)cc2)CCCc2c1ccc(O)c2F)CCCS(=O)(=O)CCCC(F)(F)C(F)(F)F [Example 41, 4-Fluoro-8-(4-fluorophenyl)-9-{6-[(3-methoxypropyl){3-[(4,4,5,5,5-pentafluoropentyl)sulphonyl]propyl}amino]hexyl}-6,7-dihydro-5H-benzo[7]annulen-3-ol] | 7.38
9 | CN(CCCCCCC1=C(c2ccc(F)cc2)CCCc2c1ccc(O)c2F)CCCCS(=O)(=O)CCCC(F)(F)C(F)(F)F [Example 43, 4-Fluoro-8-(4-fluorophenyl)-9-[6-(methyl{4-[(4,4,5,5,5-pentafluoropentyl)sulphonyl]butyl}amino)hexyl]-6,7-dihydro-5H-benzo[7]annulen-3-ol] | 7.70
10 | CN(CCCCCCC1=C(c2ccc(F)c(F)c2)CCCc2cc(O)ccc21)CCCCS(=O)(=O)CCC(F)(F)F [Example 47, 8-(3,4-Difluorophenyl)-9-[6-(methyl{4-[(3,3,3-trifluoropropyl)sulphonyl]butyl}amino)hexyl]-6,7-dihydro-5H-benzo[7]annulen-3-ol] | 7.59
11 | CN(CCCCCC1=C(c2ccc(F)cc2)CCCc2cc(O)ccc21)CCCCS(=O)(=O)CCCC(F)(F)F [Example 49, 8-(4-Fluorophenyl)-9-[5-(methyl{4-[(4,4,4-trifluorobutyl)sulphonyl]butyl}amino)pentyl]-6,7-dihydro-5H-benzo[7]annulen-3-ol] | 6.74
12 | CN(CCCCCCC1=C(c2ccc(F)cc2)CCCc2c1ccc(O)c2F)CCCCS(=O)(=O)CCC(F)(F)F [Example 50, 4-Fluoro-8-(4-fluorophenyl)-9-[6-(methyl{4-[(3,3,3-trifluoropropyl)sulphonyl]butyl}amino)hexyl]-6,7-dihydro-5H-benzo[7]annulen-3-ol] | 7.80
13 | CN(CCCCCC1=C(c2ccc(F)cc2)CCCc2cc(O)ccc21)CCCCS(=O)(=O)CCC(F)(F)F [Example 52, 8-(4-Fluorophenyl)-9-[5-(methyl{4-[(3,3,3-trifluoropropyl)sulphonyl]butyl}amino)pentyl]-6,7-dihydro-5H-benzo[7]annulen-3-ol] | 6.28

Continued by rising pIC50, values first:

Row | pIC50 | Structure (SMILES)
14 | 7.80 | COCCN(CCCCCCC1=C(c2ccc(F)c(F)c2)CCCc2cc(O)ccc21)CCCS(=O)(=O)CCCC(F)(F)C(F)(F)F [Example 31, 8-(3,4-Difluorophenyl)-9-{6-[(2-methoxyethyl){3-[(4,4,5,5,5-pentafluoropentyl)sulphonyl]propyl}amino]hexyl}-6,7-dihydro-5H-benzo[7]annulen-3-ol]
15 | 7.89 | CN(CCCCCCC1=C(c2ccc(F)cc2)CCCc2c1ccc(O)c2F)CCC[S+]([O-])CCCC(F)(F)C(F)(F)F (centres unmarked) [Example 42, 4-Fluoro-8-(4-fluorophenyl)-9-[6-(methyl{3-[(4,4,5,5,5-pentafluoropentyl)sulphinyl]propyl}amino)hexyl]-6,7-dihydro-5H-benzo[7]annulen-3-ol]
16 | 7.96 | CN(CCCCCCC1=C(c2ccc(F)cc2)CCCc2c1ccc(O)c2F)CCCS(=O)(=O)CCCC(F)(F)C(F)(F)F [Example 33, 4-Fluoro-8-(4-fluorophenyl)-9-[6-(methyl{3-[(4,4,5,5,5-pentafluoropentyl)sulphonyl]propyl}amino)hexyl]-6,7-dihydro-5H-benzo[7]annulen-3-ol]
17 | 8.00 | CC(C)(O)CN(CCCCCCC1=C(c2ccc(F)c(F)c2)CCCc2cc(O)ccc21)CCCS(=O)(=O)CCCC(F)(F)C(F)(F)F [Example 29, 8-(3,4-Difluorophenyl)-9-{6-[(2-hydroxy-2-methylpropyl){3-[(4,4,5,5,5-pentafluoropentyl)sulphonyl]propyl}amino]hexyl}-6,7-dihydro-5H-benzo[7]annulen-3-ol]
18 | 8.00 | CN(CCCCCCC1=C(c2ccc(F)cc2)CCCc2c1ccc(O)c2F)CCCC[S+]([O-])CCCC(F)(F)C(F)(F)F (centres unmarked) [Example 35, 4-Fluoro-8-(4-fluorophenyl)-9-[6-(methyl{4-[(4,4,5,5,5-pentafluoropentyl)sulphinyl]butyl}amino)hexyl]-6,7-dihydro-5H-benzo[7]annulen-3-ol]
19 | 8.05 | CC(C)(O)CN(CCCCCCC1=C(c2ccc(F)c(F)c2)CCCc2cc(O)ccc21)CCC[S+]([O-])CCCC(F)(F)C(F)(F)F (centres unmarked) [Example 28, 8-(3,4-Difluorophenyl)-9-{6-[(2-hydroxy-2-methylpropyl){3-[(4,4,5,5,5-pentafluoropentyl)sulphinyl]propyl}amino]hexyl}-6,7-dihydro-5H-benzo[7]annulen-3-ol]
20 | 8.10 | CN(CCCCCCC1=C(c2ccc(F)cc2)CCCc2c1ccc(O)c2F)CCCCS(=O)(=O)CCCC(F)(F)C(F)(F)F [Example 39, 4-Fluoro-8-(4-fluorophenyl)-9-[6-(methyl{4-[(4,4,5,5,5-pentafluoropentyl)sulphonyl]butyl}amino)hexyl]-6,7-dihydro-5H-benzo[7]annulen-3-ol]
